# Laboratory results reported in patent US10239851B2 (priority 2014, dated 2019).
# Where two headings read alike, the source gives them in different places.
# Assays:
# [1] = test system: human prostate cancer PC-3; details: for Tumor volume (mm^3) (D0): D0 (baseline at grouping);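 for all read-outs here: PC-3 tumors were established by implanting the cells under the skin of nude mice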
# Excerpt: Test of the inhibitory activity of the water soluble cabazitaxel derivatives on subcutaneously xenografted tumor of human prostate cancer PC-3 in nude mice: evaluating and comparing the inhibitory activity of the water soluble cabazitaxel derivatives and cabazitaxel on subcutaneously xenografted tumor of human prostate cancer PC-3 in nude mice.
# Human prostate cancer PC-3 cells were subcutaneously inoculated into nude mice. After the tumor volume reached 100-150 mm^3, the animals were randomly divided into several groups, and administered with the water soluble cabazitaxel derivatives of the present invention and cabazitaxel, respectively once on the same day (D0). The tumor volume was measured 2-3 times per week, the animals were weighed and the data were recorded until day 20 (D20) after grouping.
# The tumor volume (V) was calculated according to the equation: V=½×a×b^2, wherein a and b represent the length and the width, respectively.
# T/C (%)=(T−T0)/(C−C0)×100, wherein T and C represent the tumor volume at the end of the experiment; and T0 and C0 represent the tumor volume at the beginning of the experiment.
# [2] = rabbit plasma, 37° C.; for Sampling time/dissociation percent (%) 15 s / Sampling time/dissociation percent (%) 30 s: formula F derivatives
# Description: (§1) 0.1 ml samples were taken from each of the solutions, added respectively to 1 ml of blood plasma of rabbit (taken from New Zealand white rabbits, treated according to conventional methods, anticoagulated with heparin) or 1 ml of blood plasma of rat (taken from live SD rats, treated according to conventional methods, anticoagulated with heparin), homogeneously mixed, and placed in a thermostatic water bath at 37° C. for incubation with time being recorded. Samples were taken at different time points after the experiment began, and 2 ml of acetonitrile was immediately added. The samples were shaken and centrifuged for 5 min (15,000 rpm), and the supernatant was then taken for HPLC analysis.
# [3] = rat plasma, 37° C.
# Description: as §1
# [4] = PC-3 xenograft, nude mice, 13 mg/kg, D0 IV, single dose
# [5] = PC-3 xenograft, nude mice, 13 mg/kg, D0 IV, single dose, D6
# [6] = formula F derivatives, sampling time 5 s
# [7] = PC-3 xenograft, nude mice, 7 mg/kg, D0 IV, single dose
compound,measurement,setting,value
"CO[C@H]1C(=O)[C@]2(C)[C@@H](OC)C[C@H]3OC[C@@]3(OC(C)=O)[C@H]2[C@H](OC(=O)c2ccccc2)[C@]2(O)C[C@H](OC(=O)[C@H](OC(=O)[C@@H](CCN(C)C)C(F)(F)F)[C@@H](NC(=O)OC(C)(C)C)c3ccccc3)C(C)=C1C2(C)C.CS(=O)(=O)O [Compound 33, 2′-O-[4-(N,N-dimethyl)amino-2(R)-2-trifluoromethylbutyryl]cabazitaxel methanesulfonate]",T/C (%) D20,[1]; [4],−46%
"CO[C@H]1C(=O)[C@]2(C)[C@@H](OC)C[C@H]3OC[C@@]3(OC(C)=O)[C@H]2[C@H](OC(=O)c2ccccc2)[C@]2(O)C[C@H](OC(=O)[C@H](OC(=O)[C@H](F)CCN(C)C(C)C)[C@@H](NC(=O)OC(C)(C)C)c3ccccc3)C(C)=C1C2(C)C.Cl [Compound 32, 2′-O-[4-(N-methyl-N-isopropyl)amino-2(R)-fluorobutyryl]cabazitaxel hydrochloride]",T/C (%) D20,[1]; [4],−45%
"CO[C@H]1C(=O)[C@]2(C)[C@@H](OC)C[C@H]3OC[C@@]3(OC(C)=O)[C@H]2[C@H](OC(=O)c2ccccc2)[C@]2(O)C[C@H](OC(=O)[C@H](OC(=O)[C@H](F)CCCCN(C)C)[C@@H](NC(=O)OC(C)(C)C)c3ccccc3)C(C)=C1C2(C)C.O=S(=O)(O)O [Compound 36, 2′-O-[6-(N,N-dimethyl)amino-2(R)-fluorohexanoyl]cabazitaxel sulfate]",Tumor volume (mm^3) (D0),[1]; [4],111.9 ± 3.7 mm^3
same,Weight change (%) D6,[1]; [5],−16.8%
same,T/C (%) D20,[1]; [4],−20%
same,Tumor inhibitory percent (%) D20,[1]; [4],46%
same,Tumor volume (mm^3) (D20),[1]; [4],66.8 ± 12.4 mm^3
"CC(C)c1cccc(C(C)C)c1OC(=O)C(F)CCC(=O)[O-].[K+] [Compound F2, propofol 4-carboxyl-2(S)-fluorovalerate potassium salt]",Sampling time/dissociation percent (%) 15 s,[2]; sampling time 15 s,73.4%
same,Sampling time/dissociation percent (%) 30 s,[2]; sampling time 30 s,94.8%
same,Sampling time/dissociation percent (%) 5 s,[3]; [6],92.3%
"CC(C)c1cccc(C(C)C)c1OC(=O)[C@@H](F)CCCN(C)Cc1ccccc1.Cl [Compound E5, propofol 5-(N-methyl-N-benzyl)amino-2(S)-2-fluorovalerate hydrochloride]",dissociation percent,[2]; 15 s,48.4%
same,dissociation percent,[2]; 30 s,69.7%
same,dissociation percent,[3]; 5 s,72.3%
same,dissociation percent,[3]; 15 s,97.3%
"CC(C)c1cccc(C(C)C)c1OC(=O)[C@@H](F)CCN1CC1.Cl [Compound E7, propofol 4-N-(aziridin-1-yl)-2(S)-2-fluorobutyrate hydrochloride]",dissociation percent,[2]; 15 s,89.4%
same,dissociation percent,[2]; 30 s,94.4%
same,dissociation percent,[3]; 5 s,92.3%
"CC(C)c1cccc(C(C)C)c1OC(=O)C(F)C(=O)[O-].[Na+] [Compound F8, propofol 2-carboxyl-2(S)-fluoropropionate sodium salt]",Sampling time/dissociation percent (%) 15 s,[2]; sampling time 15 s,41.2%
same,Sampling time/dissociation percent (%) 30 s,[2]; sampling time 30 s,70.4%
same,Sampling time/dissociation percent (%) 5 s,[3]; [6],55.5%
same,Sampling time/dissociation percent (%) 15 s,[3]; formula F derivatives,69.3%
same,Sampling time/dissociation percent (%) 30 s,"[3]; formula F derivatives, sampling time 30 s",83.3%
"CC(C)c1cccc(C(C)C)c1OC(=O)C(F)CCCC(=O)[O-].CC(C)c1cccc(C(C)C)c1OC(=O)C(F)CCCC(=O)[O-].[Zn+2] [Compound F5, di[propofol 5-carboxyl-2(S)-fluorohexanoate] zinc salt]",Sampling time/dissociation percent (%) 15 s,[2]; sampling time 15 s,34.9%
same,Sampling time/dissociation percent (%) 30 s,[2]; sampling time 30 s,58.8%
same,Sampling time/dissociation percent (%) 5 s,[3]; [6],63.2%
same,Sampling time/dissociation percent (%) 15 s,[3]; formula F derivatives,80.3%
"CCN(CC)CC[C@@H](F)C(=O)O[C@@H](C(=O)O[C@H]1C[C@@]2(O)[C@@H](OC(=O)c3ccccc3)[C@@H]3[C@]4(OC(C)=O)CO[C@@H]4C[C@H](OC)[C@@]3(C)C(=O)[C@H](OC)C(=C1C)C2(C)C)[C@@H](NC(=O)OC(C)(C)C)c1ccccc1.CS(=O)(=O)O [Compound 31, 2′-O-[4-(N,N-diethyl)amino-2(R)-fluorobutyryl]cabazitaxel methanesulfonate]",T/C (%) D20,[1]; [4],−50%
"CO[C@H]1C(=O)[C@]2(C)[C@@H](OC)C[C@H]3OC[C@@]3(OC(C)=O)[C@H]2[C@H](OC(=O)c2ccccc2)[C@]2(O)C[C@H](OC(=O)[C@H](O)[C@@H](NC(=O)OC(C)(C)C)c3ccccc3)C(C)=C1C2(C)C [cabazitaxel, reference compound]",Tumor volume (mm^3) (D0),[1]; [7],111.7 ± 1.8 mm^3
same,T/C (%) D20,[1]; [7],−27%
same,Tumor inhibitory percent (%) D20,[1]; [7],127%
same,Tumor volume (mm^3) (D20),[1]; [7],79.9 ± 24.8 mm^3
same,Weight change (%) D6,"[1]; mouse, in vivo, iv, 7 mg/kg",−13.8%
"CCN(C)CCC(F)C(=O)Oc1c(C(C)C)cccc1C(C)C.Cl (racemic) [Compound E4, propofol 4-(N-methyl-N-ethyl)amino-2(R,S)-2-fluorobutyrate hydrochloride]",dissociation percent,[2]; 15 s,58.3%
same,dissociation percent,[2]; 30 s,70.4%
same,dissociation percent,[3]; 5 s,70.2%
"CC(C)c1cccc(C(C)C)c1OC(=O)C(F)CCN(C)C.Cl (racemic) [Compound E1, Propofol 4-(N,N-dimethyl)amino-2(R,S)-fluorobutyrate Hydrochloride]",dissociation percent,[2]; 15 s,67.5%
same,dissociation percent,[2]; 30 s,85.5%
same,dissociation percent,[3]; 5 s,75.1%
same,dissociation percent,[3]; 15 s,83.2%
same,dissociation percent,[3]; 30 s,96.7%
"CC(C)NCC(CF)C(=O)Oc1c(C(C)C)cccc1C(C)C.CS(=O)(=O)O (racemic) [Compound E6, propofol 3-(N-isopropyl)amino-2(R,S)-2-monofluoromethylpropionate methanesulfonate]",dissociation percent,[2]; 15 s,27.1%
same,dissociation percent,[2]; 30 s,44.3%
same,dissociation percent,[3]; 5 s,24.2%
same,dissociation percent,[3]; 15 s,40.1%
"CC(C)c1cccc(C(C)C)c1OC(=O)[C@@H](CCOP(=O)([O-])[O-])C(F)(F)F.[Li+].[Li+] [Compound G3, {1-[4-(2,6-diisopropylphenoxy)-4-oxo-3-(R)-3-trifluoromethyl-1-butyl]} phosphate monoester dilithium salt]",Sampling time/dissociation percent (%) 15 S,"[2]; formula G derivatives, sampling time 15 s",21.7%
same,Sampling time/dissociation percent (%) 30 S,"[2]; formula G derivatives, sampling time 30 s",43.6%
same,Sampling time/dissociation percent (%) 5 S,"[3]; formula G derivatives, sampling time 5 s",38.7%
"CCN(C)CC[C@@H](F)C(=O)O[C@@H](C(=O)O[C@H]1C[C@@]2(O)[C@@H](OC(=O)c3ccccc3)[C@@H]3[C@]4(OC(C)=O)CO[C@@H]4C[C@H](OC)[C@@]3(C)C(=O)[C@H](OC)C(=C1C)C2(C)C)[C@@H](NC(=O)OC(C)(C)C)c1ccccc1.O=C(O)/C=C\C(=O)O [Compound 30, 2′-O-[4-(N-methyl-N-ethyl)amino-2(R)-fluorobutyryl]cabazitaxel maleate]",T/C (%) D20,[1]; [4],−56%
"CO[C@H]1C(=O)[C@]2(C)[C@@H](OC)C[C@H]3OC[C@@]3(OC(C)=O)[C@H]2[C@H](OC(=O)c2ccccc2)[C@]2(O)C[C@H](OC(=O)[C@H](OC(=O)[C@H](F)CCCN(C)C)[C@@H](NC(=O)OC(C)(C)C)c3ccccc3)C(C)=C1C2(C)C.Cl [Compound 35, 2′-O-[5-(N,N-dimethyl)amino-2(R)-fluorovaleryl]cabazitaxel hydrochloride]",Tumor volume (mm^3) (D0),[1]; [4],112.9 ± 4.4 mm^3
same,Weight change (%) D6,[1]; [5],−16.6%
same,T/C (%) D20,[1]; [4],−28%
same,Tumor inhibitory percent (%) D20,[1]; [4],64%
same,Tumor volume (mm^3) (D20),[1]; [4],55.3 ± 13.8 mm^3
"CC(C)c1cccc(C(C)C)c1OC(=O)C(CCC(=O)[O-])C(F)(F)F.[Li+] [Compound F3, propofol 4-carboxyl-2(R)-2-trifluoromethyl valerate lithium salt]",Sampling time/dissociation percent (%) 15 s,[2]; sampling time 15 s,28.4%
same,Sampling time/dissociation percent (%) 30 s,[2]; sampling time 30 s,47.9%
same,Sampling time/dissociation percent (%) 5 s,[3]; [6],47.4%
"CO[C@H]1C(=O)[C@]2(C)[C@@H](OC)C[C@H]3OC[C@@]3(OC(C)=O)[C@H]2[C@H](OC(=O)c2ccccc2)[C@]2(O)C[C@H](OC(=O)[C@H](OC(=O)[C@@H](CCN(C)C)C(F)F)[C@@H](NC(=O)OC(C)(C)C)c3ccccc3)C(C)=C1C2(C)C.Cc1ccc(S(=O)(=O)O)cc1 [Compound 34, 2′-O-[4-(N,N-dimethyl)amino-2(R)-2-difluoromethylbutyryl] cabazitaxel p-toluene sulfonate]",Tumor volume (mm^3) (D0),[1]; [4],116.7 ± 3.9 mm^3
same,Weight change (%) D6,[1]; [5],−16.1%
same,T/C (%) D20,[1]; [4],−37%
same,Tumor inhibitory percent (%) D20,[1]; [4],85%
same,Tumor volume (mm^3) (D20),[1]; [4],48.4 ± 14.7 mm^3
"CC(C)c1cccc(C(C)C)c1OC(=O)C(F)CCCCCC(=O)[O-].CC(C)c1cccc(C(C)C)c1OC(=O)C(F)CCCCCC(=O)[O-].[Ca+2] (racemic) [Compound F4, di[propofol 7-carboxyl-2(R,S)-fluorocaprylate] calcium salt]",Sampling time/dissociation percent (%) 15 s,[2]; sampling time 15 s,48.3%
same,Sampling time/dissociation percent (%) 30 s,[2]; sampling time 30 s,61.7%
same,Sampling time/dissociation percent (%) 5 s,[3]; [6],63.8%
